{
  "source": "ChEMBL document CHEMBL4002647",
  "about": "“BMS-933043, a Selective α7 nAChR Partial Agonist for the Treatment of Cognitive Deficits Associated with Schizophrenia” (ACS Med Chem Lett, 2017)",
  "key": {"[1]": {"species": "Canis familiaris", "experiment": "Hepatotoxicity in dog assessed as increase in ALT level", "assay_type": "toxicity, Canis lupus familiaris", "conditions": "in vivo"}, "[2]": {"species": "Canis familiaris", "experiment": "Hepatotoxicity in dog assessed as increase in AST level", "assay_type": "toxicity, Canis lupus familiaris", "conditions": "in vivo"}, "[3]": {"target": "T1, Neuronal acetylcholine receptor subunit alpha-7 (Homo sapiens, UniProt P36544)", "T1 sequence (P36544 whole entry)": "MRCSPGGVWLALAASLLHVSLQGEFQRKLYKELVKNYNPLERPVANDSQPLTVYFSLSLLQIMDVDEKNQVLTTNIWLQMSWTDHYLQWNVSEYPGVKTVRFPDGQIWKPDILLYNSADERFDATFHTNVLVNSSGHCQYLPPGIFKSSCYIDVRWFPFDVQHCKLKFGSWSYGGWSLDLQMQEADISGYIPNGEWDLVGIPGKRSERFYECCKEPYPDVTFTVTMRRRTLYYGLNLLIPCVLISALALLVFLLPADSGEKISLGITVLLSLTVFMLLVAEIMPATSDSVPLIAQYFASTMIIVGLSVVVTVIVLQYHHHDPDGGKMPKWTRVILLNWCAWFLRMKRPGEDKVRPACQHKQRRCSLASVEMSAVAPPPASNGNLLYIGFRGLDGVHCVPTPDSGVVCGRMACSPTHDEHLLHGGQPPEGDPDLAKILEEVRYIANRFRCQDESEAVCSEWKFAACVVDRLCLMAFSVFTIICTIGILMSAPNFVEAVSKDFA", "experiment": "Displacement of [125I]alpha-bungarotoxin from human alpha7 nAChR expressed in HEK293 cell membranes incubated for 2 hrs and measured by gamma counting method"}, "[4]": {"target": "T1, Neuronal acetylcholine receptor subunit alpha-7", "experiment": "Agonist activity at human alpha7 nAChR expressed in HEK293 cells co-expressing human RIC3 assessed as induction of peak current amplitutde at 10 uM at holding potential of -90 mV by whole-cell voltage clamp electrophysiology method relative to acetylcholine", "assay_type": "cell-based"}, "[5]": {"target": "T1, Neuronal acetylcholine receptor subunit alpha-7", "experiment": "Agonist activity at human alpha7 nAChR expressed in HEK293 cells co-expressing human RIC3 assessed as area under current curve at 10 uM at holding potential of -90 mV by whole-cell voltage clamp electrophysiology method relative to acetylcholine", "assay_type": "cell-based"}, "[6]": {"target": "T1, Neuronal acetylcholine receptor subunit alpha-7", "experiment": "Agonist activity at human alpha7 nAChR expressed in HEK293 cells co-expressing human RIC3 assessed as area under current curve at holding potential of -90 mV by whole-cell voltage clamp electrophysiology method", "assay_type": "cell-based"}, "[7]": {"target": "Nicotinic acetylcholine receptor alpha-1/beta-1/delta/epsilon (Rattus norvegicus) (UniProt P25109+P25108+P25110+P09660)", "experiment": "Antagonist activity at rat alpha1beta1delta1epsilon nAChR expressed in HEK293 cells assessed as inhibition of acetylcholine-induced increase in Ca2+ flux by Fluo-4 AM dye based FLIPR assay", "assay_type": "cell-based"}, "[8]": {"experiment": "Metabolic stability in human liver microsomes assessed as compound remaining at 3 uM after 10 mins by LC-MS/MS analysis", "assay_type": "ADME, microsome", "conditions": "read-out: Stability"}, "[9]": {"experiment": "Metabolic stability in rat liver microsomes assessed as compound remaining at 3 uM after 10 mins by LC-MS/MS analysis", "assay_type": "ADME, microsome", "conditions": "read-out: Stability"}, "[10]": {"experiment": "Metabolic stability in dog liver microsomes assessed as compound remaining at 3 uM after 10 mins by LC-MS/MS analysis", "assay_type": "ADME, Canis lupus familiaris, microsome", "conditions": "read-out: Stability"}, "[11]": {"experiment": "Metabolic stability in monkey liver microsomes assessed as compound remaining at 3 uM after 10 mins by LC-MS/MS analysis", "assay_type": "ADME, Macaca mulatta, microsome", "conditions": "rhesus monkey, read-out: Stability"}, "[12]": {"target": "T2, CYP3A4 (Homo sapiens, UniProt P08684)", "T2 sequence (P08684 whole entry)": "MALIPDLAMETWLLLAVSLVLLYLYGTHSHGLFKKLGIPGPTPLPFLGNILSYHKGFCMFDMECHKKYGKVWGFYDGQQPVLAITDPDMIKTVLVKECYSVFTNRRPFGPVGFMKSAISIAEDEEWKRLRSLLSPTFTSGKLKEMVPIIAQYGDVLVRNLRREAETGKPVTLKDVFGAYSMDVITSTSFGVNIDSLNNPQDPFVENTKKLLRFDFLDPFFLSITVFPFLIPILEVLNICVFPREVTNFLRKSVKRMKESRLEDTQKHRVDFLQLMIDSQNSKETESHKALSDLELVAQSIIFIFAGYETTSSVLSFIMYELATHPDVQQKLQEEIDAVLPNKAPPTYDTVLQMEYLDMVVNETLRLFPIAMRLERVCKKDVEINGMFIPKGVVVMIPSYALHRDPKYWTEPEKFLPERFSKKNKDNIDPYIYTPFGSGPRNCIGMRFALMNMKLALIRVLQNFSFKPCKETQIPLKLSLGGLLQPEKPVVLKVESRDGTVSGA", "experiment": "Inhibition of recombinant human CYP3A4 using fluorogenic substrate BFC preincubated for 30 mins and measured after 20 to 60 mins in presence of NADPH regenerating system by fluorescence assay", "assay_type": "ADME", "conditions": "human, recombinant CYP3A4, probe BFC"}, "[13]": {"target": "T2, CYP3A4", "experiment": "Inhibition of recombinant human CYP3A4 using fluorogenic substrate BZR preincubated for 30 mins and measured after 20 to 60 mins in presence of NADPH regenerating system by fluorescence assay", "assay_type": "ADME", "conditions": "human, recombinant CYP3A4, probe BZR"}, "[14]": {"target": "CYP1A2 (Homo sapiens, UniProt P05177)", "sequence (P05177 whole entry)": "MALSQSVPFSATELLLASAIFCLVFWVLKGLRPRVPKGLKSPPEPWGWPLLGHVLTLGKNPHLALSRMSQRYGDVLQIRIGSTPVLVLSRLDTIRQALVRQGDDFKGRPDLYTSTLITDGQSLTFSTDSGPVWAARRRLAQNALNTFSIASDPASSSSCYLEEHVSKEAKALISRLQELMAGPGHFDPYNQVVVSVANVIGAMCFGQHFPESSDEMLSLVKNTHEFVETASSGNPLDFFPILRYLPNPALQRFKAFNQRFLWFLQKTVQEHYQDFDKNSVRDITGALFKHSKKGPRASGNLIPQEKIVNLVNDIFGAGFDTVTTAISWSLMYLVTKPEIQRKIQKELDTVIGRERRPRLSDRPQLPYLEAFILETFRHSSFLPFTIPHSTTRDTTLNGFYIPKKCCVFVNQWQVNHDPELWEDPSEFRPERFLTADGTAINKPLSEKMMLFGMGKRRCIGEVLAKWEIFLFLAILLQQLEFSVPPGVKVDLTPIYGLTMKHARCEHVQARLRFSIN", "experiment": "Inhibition of recombinant human CYP1A2 using fluorogenic substrate preincubated for 30 mins and measured after 20 to 60 mins in presence of NADPH regenerating system by fluorescence assay", "assay_type": "ADME", "conditions": "recombinant CYP1A2, probe fluorogenic substrate (not named)"}, "[15]": {"target": "CYP2B6 (Homo sapiens, UniProt P20813)", "sequence (P20813 whole entry)": "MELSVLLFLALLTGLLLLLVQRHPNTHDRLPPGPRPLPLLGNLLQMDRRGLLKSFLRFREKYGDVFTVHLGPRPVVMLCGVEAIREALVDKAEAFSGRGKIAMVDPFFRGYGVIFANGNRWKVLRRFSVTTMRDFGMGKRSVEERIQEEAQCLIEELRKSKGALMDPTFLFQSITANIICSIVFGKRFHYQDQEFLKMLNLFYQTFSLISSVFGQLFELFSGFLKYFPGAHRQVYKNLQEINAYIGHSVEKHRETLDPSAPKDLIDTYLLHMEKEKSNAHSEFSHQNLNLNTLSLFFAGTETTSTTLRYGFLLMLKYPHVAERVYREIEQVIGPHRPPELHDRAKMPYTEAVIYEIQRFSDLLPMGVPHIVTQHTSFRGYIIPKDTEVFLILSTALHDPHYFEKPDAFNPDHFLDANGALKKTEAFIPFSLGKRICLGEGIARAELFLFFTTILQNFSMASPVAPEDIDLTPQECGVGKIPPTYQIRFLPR", "experiment": "Inhibition of recombinant human CYP2B6 using fluorogenic substrate preincubated for 30 mins and measured after 20 to 60 mins in presence of NADPH regenerating system by fluorescence assay", "assay_type": "ADME", "conditions": "human, recombinant CYP2B6, probe fluorogenic substrate (not named)"}, "[16]": {"target": "CYP2C8 (Homo sapiens, UniProt P10632)", "sequence (P10632 whole entry)": "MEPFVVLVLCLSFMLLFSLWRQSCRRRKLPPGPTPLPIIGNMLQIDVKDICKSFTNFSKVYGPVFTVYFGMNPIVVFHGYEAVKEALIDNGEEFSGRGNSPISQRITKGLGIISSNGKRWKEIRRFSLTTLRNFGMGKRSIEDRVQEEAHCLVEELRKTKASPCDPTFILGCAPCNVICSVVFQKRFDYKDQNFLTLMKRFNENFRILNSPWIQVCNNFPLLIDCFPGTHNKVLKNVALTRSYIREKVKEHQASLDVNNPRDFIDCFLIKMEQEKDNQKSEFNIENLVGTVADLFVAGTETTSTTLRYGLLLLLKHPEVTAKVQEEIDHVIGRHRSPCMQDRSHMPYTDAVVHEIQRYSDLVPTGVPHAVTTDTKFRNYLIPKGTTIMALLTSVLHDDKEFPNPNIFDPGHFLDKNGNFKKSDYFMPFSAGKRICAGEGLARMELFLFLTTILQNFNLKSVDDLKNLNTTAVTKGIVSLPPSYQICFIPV", "experiment": "Inhibition of recombinant human CYP2C8 using fluorogenic substrate preincubated for 30 mins and measured after 20 to 60 mins in presence of NADPH regenerating system by fluorescence assay", "assay_type": "ADME", "conditions": "human, recombinant CYP2C8, probe fluorogenic substrate (not named)"}, "[17]": {"target": "CYP2C9 (Homo sapiens, UniProt P11712)", "sequence (P11712 whole entry)": "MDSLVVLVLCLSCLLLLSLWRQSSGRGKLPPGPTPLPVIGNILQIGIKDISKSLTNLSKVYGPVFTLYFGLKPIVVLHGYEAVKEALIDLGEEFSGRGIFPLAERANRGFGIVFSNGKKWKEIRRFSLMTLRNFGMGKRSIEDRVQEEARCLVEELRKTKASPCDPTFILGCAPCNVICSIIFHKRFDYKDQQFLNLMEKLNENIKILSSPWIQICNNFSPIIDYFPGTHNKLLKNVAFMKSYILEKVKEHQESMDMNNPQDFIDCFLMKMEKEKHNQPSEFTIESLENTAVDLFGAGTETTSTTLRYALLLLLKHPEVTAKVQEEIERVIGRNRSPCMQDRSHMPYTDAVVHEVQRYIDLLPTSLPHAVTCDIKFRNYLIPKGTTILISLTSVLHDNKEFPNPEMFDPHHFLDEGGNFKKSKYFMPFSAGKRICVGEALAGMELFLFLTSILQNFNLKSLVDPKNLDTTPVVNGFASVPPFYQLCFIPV", "experiment": "Inhibition of recombinant human CYP2C9 using fluorogenic substrate preincubated for 30 mins and measured after 20 to 60 mins in presence of NADPH regenerating system by fluorescence assay", "assay_type": "ADME", "conditions": "recombinant CYP2C9, probe fluorogenic substrate (not named)"}, "[18]": {"target": "CYP2C19 (Homo sapiens, UniProt P33261)", "sequence (P33261 whole entry)": "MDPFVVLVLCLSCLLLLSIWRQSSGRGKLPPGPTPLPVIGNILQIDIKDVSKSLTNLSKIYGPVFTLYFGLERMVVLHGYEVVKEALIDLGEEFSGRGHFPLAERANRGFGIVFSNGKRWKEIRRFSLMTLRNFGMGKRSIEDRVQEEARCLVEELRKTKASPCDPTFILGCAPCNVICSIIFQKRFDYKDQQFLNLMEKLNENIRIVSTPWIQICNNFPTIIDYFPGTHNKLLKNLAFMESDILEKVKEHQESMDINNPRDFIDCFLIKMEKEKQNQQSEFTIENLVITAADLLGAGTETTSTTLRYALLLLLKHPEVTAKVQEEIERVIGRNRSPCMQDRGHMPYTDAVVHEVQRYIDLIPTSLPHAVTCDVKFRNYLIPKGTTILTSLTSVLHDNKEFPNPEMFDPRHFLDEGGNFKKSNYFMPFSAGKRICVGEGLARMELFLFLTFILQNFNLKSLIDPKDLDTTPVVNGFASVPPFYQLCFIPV", "experiment": "Inhibition of recombinant human CYP2C19 using fluorogenic substrate preincubated for 30 mins and measured after 20 to 60 mins in presence of NADPH regenerating system by fluorescence assay", "assay_type": "ADME", "conditions": "recombinant CYP2C19, probe fluorogenic substrate (not named)"}, "[19]": {"target": "CYP2D6 (Homo sapiens, UniProt P10635)", "sequence (P10635 whole entry)": "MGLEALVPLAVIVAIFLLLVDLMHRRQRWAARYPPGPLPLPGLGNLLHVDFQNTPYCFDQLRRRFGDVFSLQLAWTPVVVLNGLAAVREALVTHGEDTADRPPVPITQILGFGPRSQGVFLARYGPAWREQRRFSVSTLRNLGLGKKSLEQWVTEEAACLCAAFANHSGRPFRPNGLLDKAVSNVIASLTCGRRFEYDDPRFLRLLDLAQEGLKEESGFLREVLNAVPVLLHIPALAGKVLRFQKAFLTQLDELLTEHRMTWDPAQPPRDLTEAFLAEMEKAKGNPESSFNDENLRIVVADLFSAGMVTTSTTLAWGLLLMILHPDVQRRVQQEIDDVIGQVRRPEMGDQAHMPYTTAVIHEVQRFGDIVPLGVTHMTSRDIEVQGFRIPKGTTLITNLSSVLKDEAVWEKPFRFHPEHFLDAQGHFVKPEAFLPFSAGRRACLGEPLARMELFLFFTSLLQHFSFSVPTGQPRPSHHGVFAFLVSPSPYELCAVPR", "experiment": "Inhibition of recombinant human CYP2D6 using fluorogenic substrate preincubated for 30 mins and measured after 20 to 60 mins in presence of NADPH regenerating system by fluorescence assay", "assay_type": "ADME", "conditions": "human, recombinant CYP2D6, probe fluorogenic substrate (not named)"}, "[20]": {"experiment": "Fraction unbound in human plasma at 10 uM after 4 hrs by equilibrium dialysis method", "assay_type": "ADME, cell-free"}, "[21]": {"experiment": "Fraction unbound in rat plasma at 10 uM after 4 hrs by equilibrium dialysis method", "assay_type": "ADME, cell-free"}, "[22]": {"experiment": "Fraction unbound in mouse plasma at 10 uM after 4 hrs by equilibrium dialysis method", "assay_type": "ADME, cell-free"}, "[23]": {"experiment": "Fraction unbound in dog plasma at 10 uM after 4 hrs by equilibrium dialysis method", "assay_type": "ADME, cell-free, Canis lupus familiaris"}, "[24]": {"experiment": "Fraction unbound in monkey plasma at 10 uM after 4 hrs by equilibrium dialysis method", "assay_type": "ADME, cell-free, Macaca mulatta", "conditions": "rhesus monkey"}, "[25]": {"species": "Canis familiaris", "experiment": "Hepatotoxicity in dog assessed as increase in alkaline phosphatase level", "assay_type": "toxicity, Canis lupus familiaris", "conditions": "in vivo"}, "[26]": {"species": "Canis familiaris", "experiment": "Cardiotoxicity in dog assessed as QT prolongation", "assay_type": "toxicity, Canis lupus familiaris"}, "[27]": {"target": "Neuronal acetylcholine receptor; alpha3/beta4 (Rattus norvegicus) (UniProt P04757+P12392)", "experiment": "Antagonist activity at rat alpha3beta4 nAChR expressed in HEK293 cells assessed as inhibition of acetylcholine-induced increase in Ca2+ flux by Fluo-4 AM dye based FLIPR assay", "assay_type": "cell-based"}, "[28]": {"target": "Neuronal acetylcholine receptor; alpha4/beta2 (Rattus norvegicus) (UniProt P09483+P12390)", "experiment": "Antagonist activity at rat alpha4beta2 nAChR expressed in HEK293 cells assessed as inhibition of acetylcholine-induced increase in Ca2+ flux by Fluo-4 AM dye based FLIPR assay", "assay_type": "cell-based"}, "[29]": {"experiment": "Metabolic stability in mouse liver microsomes assessed as compound remaining at 3 uM after 10 mins by LC-MS/MS analysis", "assay_type": "ADME, microsome", "conditions": "read-out: Stability"}, "[30]": {"species": "Canis familiaris", "experiment": "[…] in dog assessed as increase in AST level", "assay_type": "toxicity, Canis lupus familiaris", "conditions": "in vivo"}, "[31]": {"species": "Canis familiaris", "experiment": "[…] in dog assessed as increase in ALT level", "assay_type": "toxicity, Canis lupus familiaris", "conditions": "in vivo"}, "[32]": {"species": "Canis familiaris", "experiment": "[…] in dog assessed as increase in alkaline phosphatase level", "assay_type": "toxicity, Canis lupus familiaris", "conditions": "in vivo"}},
  "note": "Calls of active or inactive are those of the source. The calls are words filed in the database; no cut-off is given here.",
  "data": [
    {"smiles": "c1ccc2cc(NC3=NC[C@@]4(CN5CCC4CC5)O3)ncc2c1", "values": [
      {"measurement": "Activity", "setting": "[1]", "value": "Toxic"},
      {"measurement": "Activity", "setting": "[2]", "value": "Toxic"},
      {"measurement": "Ki", "setting": "[3]", "value": 1.3, "unit": "nM"},
      {"measurement": "%max", "setting": "[4]", "value": 26, "unit": "%"},
      {"measurement": "%max", "setting": "[5]", "value": 62, "unit": "%"},
      {"measurement": "EC50", "setting": "[6]", "value": 240, "unit": "nM"},
      {"measurement": "inhibition", "setting": "[7]", "value": "inactive"},
      {"measurement": "remaining at 10 min, 3 µM", "setting": "[8]", "value": 96, "unit": "%"},
      {"measurement": "remaining at 10 min, 3 µM", "setting": "[9]", "value": 1, "unit": "%"},
      {"measurement": "remaining at 10 min, 3 µM", "setting": "[10]", "value": 74, "unit": "%"},
      {"measurement": "remaining at 10 min, 3 µM", "setting": "[11]", "value": 78, "unit": "%"},
      {"measurement": "IC50", "setting": "[12]", "value": "> 40", "unit": "µM"},
      {"measurement": "IC50", "setting": "[13]", "value": "> 40", "unit": "µM"},
      {"measurement": "IC50", "setting": "[14]", "value": "> 40", "unit": "µM"},
      {"measurement": "IC50", "setting": "[15]", "value": "> 40", "unit": "µM"},
      {"measurement": "IC50", "setting": "[16]", "value": "> 40", "unit": "µM"},
      {"measurement": "IC50", "setting": "[17]", "value": "> 40", "unit": "µM"},
      {"measurement": "IC50", "setting": "[18]", "value": "> 40", "unit": "µM"},
      {"measurement": "IC50", "setting": "[19]", "value": "> 40", "unit": "µM"},
      {"measurement": "fraction unbound at 4 h, 10 µM", "setting": "[20]", "value": 0.25},
      {"measurement": "fraction unbound at 4 h, 10 µM", "setting": "[21]", "value": 0.27},
      {"measurement": "fraction unbound at 4 h, 10 µM", "setting": "[22]", "value": 0.23},
      {"measurement": "fraction unbound at 4 h, 10 µM", "setting": "[23]", "value": 0.44},
      {"measurement": "fraction unbound at 4 h, 10 µM", "setting": "[24]", "value": 0.35},
      {"measurement": "Activity", "setting": "[25]", "value": "Toxic"},
      {"measurement": "Activity", "setting": "[26]", "value": "Toxic"},
      {"measurement": "inhibition", "setting": "[27]", "value": "inactive"},
      {"measurement": "inhibition", "setting": "[28]", "value": "inactive"},
      {"measurement": "remaining at 10 min, 3 µM", "setting": "[29]", "value": 89, "unit": "%"},
      {"measurement": "Activity", "setting": "[30]", "value": "Toxic"},
      {"measurement": "Activity", "setting": "[31]", "value": "Toxic"},
      {"measurement": "Activity", "setting": "[32]", "value": "Toxic"}
    ]}
  ]
}
